The text below walks through data of US9655991B2, “Stable hydrogel compositions including additives” (Allergan Industries, S.A.S., priority 2010, dated 2017).

This data set in a line: Oxidative degradation of gel by free radicals (H2O2) on rheometer. The settings on record: gel with AA2G and lidocaine vs gel with lidocaine.

Description: The effect of ascorbic acid 2-glucoside (AA2G™) on HA-based gel matrix oxidative degradation was studied. Oxidation testing was used as it allows testing of the resistance of a HA-based gel matrix to free radicals. Degradation by free radicals was simulated on a rheometer (Haake Rheostress 600) by addition of 1/7 ratio of H2O2 30% on the surface of a spread gel measured with a controlled stress rheometer according to the following method: frequency of 1 Hz with 0.8% controlled strain, during 3600 s at 35° C. The time value is taken at 5 Pa/s.

Consider `O=C1O[C@H]([C@@H](O)CO)C(O)=C1O[C@H]1O[C@H](CO)[C@@H](O)[C@H](O)[C@H]1O` [Ascorbic acid 2-glucoside (AA2G™), Ascorbic acid 2-glucoside], for which the “Protection against oxidative degradation (factor)” value came out at 3.
